Consider 1 sequence from article PMC10522709, “Rational design and characterization of cell-selective antimicrobial peptides based on a bioactive peptide from Crocodylus siamensis hemoglobin” (Scientific Reports, 2023).

In general, MIC refers to the smallest concentration in the dilution series that meets the test's criterion for growth inhibition. One may read the MBC as the smallest concentration meeting the test's criterion for killing.

The subject of experiment [1] is Staphylococcus aureus (ATCC 25923). It counts as cell-based. To be noted: ATCC 25923, 18 h. Here is the method:
(§1) Broth microdilution assays were performed as reported previously. In short, the bacteria including Escherichia coli (ATCC 25922), Klebsiella pneumoniae (ATCC 27736), Pseudomonas aeruginosa (ATCC 27853), Bacillus subtilis (ATCC 6633), Staphylococcus aureus (ATCC 25923) and Staphylococcus epidermidis (ATCC 12228) were grown in Nutrient broth to mid-log phase at 37 °C. The bacterial suspension (50 μL, concentration of 1 × 10^6 CFU/mL) was loaded into a well with serially diluted peptide (50 µL, final concentrations ranging from 0–200 μg/mL) in a sterile 96-well plate and incubated at 37 °C for 18 h. The optical density (OD) at 600 nm was measured using a microplate reader (ALLSHENG, Zhejiang, China) in order to determine the growth of the bacteria. The inhibition was estimated using the formula; %inhibition=OD600ofcontrol-OD600ofsample/OD600ofcontrol-OD600ofblank×100 where minimal inhibitory concentration (MIC) is defined as the minimum concentration that inhibited 90% of bacterial growth.

The test system of experiment [2] is Bacillus subtilis (ATCC 6633). It counts as cell-based. As to conditions: ATCC 6633, 18 h. As to the method: as §1
Experiment [3] has as its system Staphylococcus epidermidis (ATCC 12228). The format is cell-based. To be noted: ATCC 12228, 24 h. As to the method: as §1
(§2) In order to evaluate the minimal bactericidal concentration (MBC)—the lowest concentration that terminates the growth of bacteria on an agar plate—of the peptide, co-culture medium (100 μL) from each well after the microdilution assay was spread on a nutrient agar plate. Plates were maintained at 37 °C for 24 h and the number of colonies formed was counted to evaluate antimicrobial activity.

In experiment [4] the test system is Pseudomonas aeruginosa (ATCC 27853). The format is cell-based. As to conditions: ATCC 27853, 24 h. As to the method: as §1, §2
The subject of experiment [5] is Staphylococcus aureus (ATCC 25923). The format is cell-based. To be noted: ATCC 25923, 24 h. As to the method:
as §1, §2

The subject of experiment [6] is Escherichia coli (ATCC 25922). It counts as cell-based. As to conditions: ATCC 25922, 24 h. Here is the method:
as §1, §2

Experiment [7] relates to Klebsiella pneumoniae (ATCC 27736). It counts as cell-based. As to conditions: ATCC 27736, 24 h. Here is the method: as §1, §2
Experiment [8] has as its system Bacillus subtilis (ATCC 6633). It counts as cell-based. As to conditions: ATCC 6633, 24 h. As to the method:
as §1, §2

In experiment [9] the test system is EcoRI-digested Lambda (λ) DNA. Nature of the experiment: Gel retardation assay. The format is binding. As to conditions: 200 ng λ DNA, peptide 4, 6, 8, 16 µg/mL, 60 min, room temperature, 0.8% agarose gel. As to the method: DNA used for this test was Lambda (λ) DNA, which had been digested with EcoRI into fragments sized 21,226, 7421, 5804, 5643, 4878 and 3530 bp (Thermo Fisher Scientific, Waltham, MA, USA). The gel retardation assay was run by mixing 200 ng of λ DNA with different concentrations of IL15.3 at 1 × MIC (4 µg/mL), 2 × MIC (8 µg/mL), 4 × MIC (16 µg/mL) and MBC (6 µg/mL) of E. coli. The mixtures were incubated for 60 min at room temperature and subjected to electrophoresis on a 0.8% agarose gel. Gel was then stained with ViSafe Red gel stain (Vivantis, Selangor Darul Ehsan, Malaysia). Subsequently, DNA bands were photographed using G-box gel documentation (Syngene, USA).

The test system of experiment [10] is S. epidermidis (ATCC12228). Nature of the experiment: Time-killing kinetics assay. It counts as cell-based, Staphylococcus epidermidis. As to conditions: 1 × MIC, 37 °C, colony count. As to the method: The time-killing kinetics of peptide was determined as described previously by Yaraksa et al.[16] In short, E. coli (ATCC25922) and S. epidermidis (ATCC12228) cells grown overnight were diluted in the Nutrient broth to a concentration of 1 × 10^6 CFU/mL. The diluted bacterial suspension (50 µL) was incubated with the peptide solution (50 µL, final concentration = 1 × MIC or 2 × MIC) at 37 °C. 10 µL of the mixture was taken at regular time intervals (0, 15, 30, 60, 180, 360, 540 and 720 min for 1 × MIC and 0, 30, 60, 180, 360, 720, 1440, 2160 and 2880 min for 2 × MIC), diluted and cultured on nutrient agar plates for 24 h. Bacterial cells were then counted and a graph of the log CFU/mL against incubation time was plotted to evaluate the rate at which peptides kill bacterial cells.

Experiment [11] concerns human peripheral blood mononuclear cells (PBMC). It counts as cell-based. To be noted: 24 h. As to the method: (§3) Human peripheral blood mononuclear cells (PBMC), African green monkey kidney cells (Vero), human keratinocyte cells (HaCaT) and mouse preadipocytes (3T3-L1) were used to evaluate the cytotoxicity of peptides by the MTT assay. PBMCs were isolated using Ficoll medium (GE Healthcare, Uppsala, Sweden) as described by Jangpromma et al.[28]. The PBMCs were then cultured in RPMI 1640, while Vero, HaCaT and 3T3-L1 cells were cultured in DMEM. All culture mediums were supplemented with 10% heat-inactivated fetal bovine serum (FBS) and 1% antibiotic:antimycotic (Gibco, USA). The cells were cultured at 37 °C with 5% CO2/95% relative humidity. After that, PBMC (2 × 10^6 cells/well), Vero (1 × 10^4 cells/well), HaCaT (1 × 10^4 cells/well) and 3T3-L1 (1 × 10^4 cells/well) were individually seeded into 96-well plate and cultured at 37 °C overnight. Next, two-fold serially diluted peptides (3.13–200 μg/mL) were added to the cell culture. After incubation in 5% (v/v) CO2 incubator for 24 h, the medium culture was removed and MTT solution ([…] final concentration in fresh medium culture) was added to the cells and incubated for 30 min. Thereafter, the medium was removed and DMSO (100 µL) was added to each well to dissolve the formazan crystals. The optical density at 570 nm was determined using a microplate reader (ALLSHENG, Zhejiang, China). The cytotoxicity of IL15.3 against Vero, HaCaT and 3T3-L1 cells in the absence of FBS was also measured by the MTT assay to confirm the peptide is not sequestered by proteins in the serum causing artificially low cytotoxicity against eukaryotic cells.
(§4) Cell viability was determined using the equation: %cellviability=OD570ofsample/OD570ofuntreatedcontrol×100
(§5) GraphPad Prism8 (San Diego, CA, USA) was used to calculate IC50 values using a non-linear regression model.

Experiment [12] has as its system human keratinocyte cells (HaCaT). The format is cell-based. To be noted: 24 h. As to the method:
as §3, §4, §5

Ends that are not written are not given here.

Sequence IKHWKKVWKHAKKVL [IL15.3] returned an increase in antimicrobial activity vs QL17 of more than 1000 fold. Besides, the minimal inhibitory concentration (MIC) in experiment [1] came to 12 µg/mL. The minimum inhibitory concentration (MIC) in experiment [2] amounted to 8 µg/mL. The sequence also gave an MBC in experiment [3] of 12 µg/mL. Moreover, the MBC in [4] came out at 18 µg/mL. The same sequence displayed an MBC in [5] of 25 µg/mL. The same sequence showed an MBC in experiment [6] of 6 µg/mL. In experiment [7], this sequence registered an MBC of 25 µg/mL. The sequence further showed an MBC in [8] of 12 µg/mL. Further, the “interaction with DNA (gel retardation)” value in experiment [9] is “binds to λ DNA fragments”. Also, in [10] (1 × 10^6 CFU/mL), the “time to inhibit the growth kinetic rate” value is recorded as not above 180 min. In [10], the “time to completely stop growth” value was determined as 360 min. In addition, the “IC50 PBMC” value in experiment [11] was more than 200 µg/mL. Further, the “IC50 HaCaT” value in experiment [12] was more than 200 µg/mL.
